Source: patent publication US20210070748A1, “INHIBITORS OF BRUTONS TYROSINE KINASE” (Pharmacyclics LLC, priority 2015, published 2021)

Assays:
Format in all cases: biochemical
EGFR = EGFR (Homo sapiens, UniProt P00533); experiment: Inhibition of a panel of kinases, in vitro HotSpot kinase assay: EGFR; conditions: D-compounds panel data; 1 μM ATP
Description: (§1) The degree of inhibition of a panel of kinases is determined using the in vitro HotSpot kinase assay (purified enzymes, ^33P-ATP, an appropriate substrate and 1 μM ATP).

LCK = LCK (Homo sapiens, UniProt P06239); experiment: Inhibition of a panel of kinases, in vitro HotSpot kinase assay: LCK; conditions: D-compounds panel data; 1 μM ATP; read-out: IC50 LCK
TEC = biological target: T1, TEC (Homo sapiens, UniProt P42680); experiment: Inhibition of a panel of kinases, in vitro HotSpot kinase assay: TEC; conditions: D-compounds panel data; 1 μM ATP
T1 sequence (P42680 1-631): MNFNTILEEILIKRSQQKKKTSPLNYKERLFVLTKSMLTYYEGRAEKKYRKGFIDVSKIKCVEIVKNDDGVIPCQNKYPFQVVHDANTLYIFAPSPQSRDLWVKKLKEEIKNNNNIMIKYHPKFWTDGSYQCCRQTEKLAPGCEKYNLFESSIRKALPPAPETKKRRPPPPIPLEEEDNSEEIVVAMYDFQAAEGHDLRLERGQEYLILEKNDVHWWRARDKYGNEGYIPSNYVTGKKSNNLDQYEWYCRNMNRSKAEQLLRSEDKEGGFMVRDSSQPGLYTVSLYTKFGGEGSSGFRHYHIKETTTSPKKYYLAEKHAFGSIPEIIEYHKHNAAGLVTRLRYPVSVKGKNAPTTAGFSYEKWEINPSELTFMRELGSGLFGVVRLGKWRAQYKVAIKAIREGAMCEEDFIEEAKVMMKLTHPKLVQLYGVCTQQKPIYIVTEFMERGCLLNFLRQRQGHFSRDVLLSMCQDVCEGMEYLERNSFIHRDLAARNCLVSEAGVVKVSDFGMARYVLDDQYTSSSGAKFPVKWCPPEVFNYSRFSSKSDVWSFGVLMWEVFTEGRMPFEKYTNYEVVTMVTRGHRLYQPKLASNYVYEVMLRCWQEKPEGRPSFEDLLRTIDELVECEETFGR
Description: as §1

ITK = biological target: T2, ITK (Homo sapiens, UniProt Q08881); experiment: Inhibition of a panel of kinases, in vitro HotSpot kinase assay: ITK; conditions: D-compounds panel data; 1 μM ATP
T2 sequence (Q08881 1-620): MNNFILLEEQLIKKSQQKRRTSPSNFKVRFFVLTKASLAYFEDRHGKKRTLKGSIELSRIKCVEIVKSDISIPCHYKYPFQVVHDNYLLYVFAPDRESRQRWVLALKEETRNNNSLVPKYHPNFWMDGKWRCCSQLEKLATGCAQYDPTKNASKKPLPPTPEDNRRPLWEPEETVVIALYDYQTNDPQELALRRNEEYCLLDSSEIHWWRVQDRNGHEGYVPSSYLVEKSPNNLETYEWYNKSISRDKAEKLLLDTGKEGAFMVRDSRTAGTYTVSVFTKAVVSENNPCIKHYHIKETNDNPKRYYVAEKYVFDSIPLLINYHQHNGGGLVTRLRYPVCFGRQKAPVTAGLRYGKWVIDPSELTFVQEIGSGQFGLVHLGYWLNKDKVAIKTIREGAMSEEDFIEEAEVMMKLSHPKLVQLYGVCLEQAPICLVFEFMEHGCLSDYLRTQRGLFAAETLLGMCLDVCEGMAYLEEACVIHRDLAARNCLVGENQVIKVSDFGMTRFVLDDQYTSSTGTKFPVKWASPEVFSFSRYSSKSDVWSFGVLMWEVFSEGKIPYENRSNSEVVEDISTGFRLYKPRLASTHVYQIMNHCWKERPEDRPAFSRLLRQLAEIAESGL
Description: as §1

BTK-WT = biological target: T3, BTK-WT (Homo sapiens, UniProt Q06187); experiment: Btk in vitro inhibitory activity (one of Method A TR-FRET, Method B electrophoretic mobility shift, Method C radiometric filter binding); conditions: D-compounds panel data; read-out: IC50 BTK-WT
T3 construct: purified from insect cells as a full-length construct containing an N-terminal 6X-His tag; His6 (N); made in house; host or cells: insect cells (baculovirus Sf21 in Method B)
T3 sequence (Q06187 whole entry): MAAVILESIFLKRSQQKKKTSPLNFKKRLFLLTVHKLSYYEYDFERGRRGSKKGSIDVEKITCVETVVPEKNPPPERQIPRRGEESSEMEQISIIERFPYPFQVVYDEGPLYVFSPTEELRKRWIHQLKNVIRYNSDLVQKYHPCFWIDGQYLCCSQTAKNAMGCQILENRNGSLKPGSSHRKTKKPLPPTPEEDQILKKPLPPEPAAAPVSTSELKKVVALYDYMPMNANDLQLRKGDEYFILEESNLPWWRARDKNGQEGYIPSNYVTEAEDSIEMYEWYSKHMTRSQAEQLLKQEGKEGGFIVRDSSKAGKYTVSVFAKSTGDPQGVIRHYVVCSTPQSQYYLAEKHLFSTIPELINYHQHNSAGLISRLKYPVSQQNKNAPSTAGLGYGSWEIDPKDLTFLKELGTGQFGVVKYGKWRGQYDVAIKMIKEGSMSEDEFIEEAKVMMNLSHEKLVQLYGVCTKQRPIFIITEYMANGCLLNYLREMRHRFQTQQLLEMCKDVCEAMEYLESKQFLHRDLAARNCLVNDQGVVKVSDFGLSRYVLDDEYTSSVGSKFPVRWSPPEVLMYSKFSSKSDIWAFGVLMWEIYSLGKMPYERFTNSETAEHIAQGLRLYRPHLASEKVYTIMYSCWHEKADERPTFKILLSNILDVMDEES

Sequence of LCK (P06239 whole entry): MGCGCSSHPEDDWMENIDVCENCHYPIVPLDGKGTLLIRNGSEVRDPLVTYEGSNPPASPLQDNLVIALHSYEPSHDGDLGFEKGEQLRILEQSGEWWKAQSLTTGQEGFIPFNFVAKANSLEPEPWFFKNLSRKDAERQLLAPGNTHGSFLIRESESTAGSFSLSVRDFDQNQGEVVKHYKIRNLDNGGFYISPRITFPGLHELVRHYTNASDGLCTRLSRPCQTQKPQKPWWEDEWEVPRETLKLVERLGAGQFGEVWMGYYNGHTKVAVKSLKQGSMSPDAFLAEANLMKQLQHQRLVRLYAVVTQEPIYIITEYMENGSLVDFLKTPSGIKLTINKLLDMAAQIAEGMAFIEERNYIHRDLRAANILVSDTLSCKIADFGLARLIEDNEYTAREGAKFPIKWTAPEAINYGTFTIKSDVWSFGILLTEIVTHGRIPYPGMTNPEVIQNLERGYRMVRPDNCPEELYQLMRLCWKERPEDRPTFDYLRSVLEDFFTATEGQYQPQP
Sequence of EGFR (P00533 25-1210): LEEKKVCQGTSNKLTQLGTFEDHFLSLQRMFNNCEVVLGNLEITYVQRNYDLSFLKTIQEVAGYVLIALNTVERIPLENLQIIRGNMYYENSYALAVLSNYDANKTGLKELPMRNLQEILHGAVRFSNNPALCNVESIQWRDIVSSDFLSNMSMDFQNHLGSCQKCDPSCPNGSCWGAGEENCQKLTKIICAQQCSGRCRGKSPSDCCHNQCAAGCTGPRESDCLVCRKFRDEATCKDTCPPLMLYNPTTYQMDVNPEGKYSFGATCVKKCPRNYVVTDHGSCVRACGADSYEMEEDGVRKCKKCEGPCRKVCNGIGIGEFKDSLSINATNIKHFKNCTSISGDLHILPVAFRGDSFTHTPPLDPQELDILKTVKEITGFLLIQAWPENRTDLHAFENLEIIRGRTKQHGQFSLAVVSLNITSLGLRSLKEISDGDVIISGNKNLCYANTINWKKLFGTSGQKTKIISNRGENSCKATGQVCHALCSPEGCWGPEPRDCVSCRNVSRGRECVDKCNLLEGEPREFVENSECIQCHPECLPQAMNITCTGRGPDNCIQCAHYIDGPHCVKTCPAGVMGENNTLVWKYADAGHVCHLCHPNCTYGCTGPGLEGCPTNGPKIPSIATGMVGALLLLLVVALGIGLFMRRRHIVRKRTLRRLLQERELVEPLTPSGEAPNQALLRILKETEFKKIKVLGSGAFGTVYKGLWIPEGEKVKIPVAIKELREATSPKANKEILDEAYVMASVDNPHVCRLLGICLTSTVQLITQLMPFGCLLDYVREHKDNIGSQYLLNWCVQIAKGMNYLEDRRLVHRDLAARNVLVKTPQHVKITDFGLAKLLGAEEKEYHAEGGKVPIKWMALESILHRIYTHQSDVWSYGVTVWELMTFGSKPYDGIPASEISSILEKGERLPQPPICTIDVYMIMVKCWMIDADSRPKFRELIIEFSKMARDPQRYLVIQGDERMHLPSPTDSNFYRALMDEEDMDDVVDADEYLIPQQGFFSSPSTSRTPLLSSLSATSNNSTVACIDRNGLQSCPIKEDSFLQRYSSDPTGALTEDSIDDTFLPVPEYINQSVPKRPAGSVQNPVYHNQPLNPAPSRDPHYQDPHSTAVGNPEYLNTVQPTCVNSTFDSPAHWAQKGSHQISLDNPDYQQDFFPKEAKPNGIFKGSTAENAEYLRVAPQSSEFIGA

SMILES | IC50 (EGFR) [nM] | IC50 (LCK) [nM] | IC50 (TEC) [nM] | IC50 (ITK) [nM] | IC50 (BTK-WT) [nM]
C[C@@H]1[C@H](NC(=O)c2ccc(C3(C)COC3)cc2)CCCN1c1cnc(C(N)=O)c(Nc2cnn(C)c2)n1 [Example D-228, 3-[(1-methyl-1H-pyrazol-4-yl)amino]-5-[(2R,3R)-2-methyl-3-[4-(3-methyloxetan-3-yl)benzamido]piperidin-1-yl]pyrazine-2-carboxamide] | 1000 to 10000 | 100 to 1000 | ≤ 10 | 100 to 1000 | ≤ 10
C[C@@H]1[C@H](NC(=O)c2ccc(C(C)(O)C(F)(F)F)cc2)CCCN1c1cnc(C(N)=O)c(Nc2cnn(C)c2)n1 (single isomer, unassigned) [Example D-214] | 100 to 1000 | 10 to 100 | ≤ 10 | 100 to 1000 | ≤ 10
C[C@@H]1[C@H](NC(=O)c2ccc3scnc3c2)CCCN1c1cnc(C(N)=O)c(Nc2cnn(C)c2)n1 [Example D-237, N-[(2R,3R)-1-{5-carbamoyl-6-[(1-methyl-1H-pyrazol-4-yl)amino]pyrazin-2-yl}-2-methylpiperidin-3-yl]-1,3-benzothiazole-5-carboxamide] | 1000 to 10000 | 10 to 100 | ≤ 10 | 100 to 1000 | ≤ 10
C[C@@H]1[C@H](NC(=O)c2ccc(C3CC3)cc2F)CCCN1c1cnc(C(N)=O)c(Nc2cc(CN3CCOCC3)ns2)n1 [Example D-173, 5-[(2R,3R)-3-(4-cyclopropyl-2-fluorobenzamido)-2-methylpiperidin-1-yl]-3-{[3-(morpholin-4-ylmethyl)-1,2-thiazol-5-yl]amino}pyrazine-2-carboxamide] | 100 to 1000 | 10 to 100 | 10 to 100 | 100 to 1000 | ≤ 10
C[C@@H]1[C@H](NC(=O)c2ncc(C3CC3)cn2)CCCN1c1cnc(C(N)=O)c(Nc2cnn(C)c2)n1 [Example D-198, 5-[(2R,3R)-3-(5-cyclopropylpyrimidine-2-amido)-2-methylpiperidin-1-yl]-3-[(1-methyl-1H-pyrazol-4-yl)amino]pyrazine-2-carboxamide] | 1000 to 10000 | 10 to 100 | 10 to 100 | 100 to 1000 | ≤ 10
C[C@@H]1[C@H](NC(=O)N(C)C)CCCN1c1cnc(C(N)=O)c(Nc2ccc(N3CCN(C)CC3)cn2)n1 [Example D-180, 5-[(2R,3R)-3-[(dimethylcarbamoyl)amino]-2-methylpiperidin-1-yl]-3-{[5-(4-methylpiperazin-1-yl)pyridin-2-yl]amino}pyrazine-2-carboxamide] | 1000 to 10000 | > 10000 | > 10000 | > 10000 | 100 to 1000

Continued, values first:

IC50 (EGFR) [nM] | IC50 (LCK) [nM] | IC50 (TEC) [nM] | IC50 (ITK) [nM] | IC50 (BTK-WT) [nM] | SMILES
100 to 1000 | 10 to 100 | ≤ 10 | 10 to 100 | ≤ 10 | C[C@@H]1[C@H](NC(=O)c2ccc(C3CC3)nc2)CCCN1c1cnc(C(N)=O)c(Nc2ccc(N3CCN(C)CC3)cc2)n1 [Example D-203, 5-[(2R,3R)-3-(6-cyclopropylpyridine-3-amido)-2-methylpiperidin-1-yl]-3-{[4-(4-methylpiperazin-1-yl)phenyl]amino}pyrazine-2-carboxamide]
100 to 1000 | 100 to 1000 | 10 to 100 | 1000 to 10000 | ≤ 10 | Cc1cc(Nc2nc(N3C[C@H](NC(=O)c4ccc(C5CC5)cc4F)CC[C@@H]3C)cnc2C(N)=O)sn1 [Example D-181, 5-[(2S,5R)-5-(4-cyclopropyl-2-fluorobenzamido)-2-methylpiperidin-1-yl]-3-[(3-methyl-1,2-thiazol-5-yl)amino]pyrazine-2-carboxamide]
1000 to 10000 | 1000 to 10000 | 100 to 1000 | > 10000 | 10 to 100 | Cc1cc(Nc2nc(N3CCC[C@@H](c4ncc(-c5ccc(C6CC6)cc5)[nH]4)[C@H]3C)cnc2C(N)=O)sn1 [Example D-186, 5-[(2R,3R)-3-[5-(4-cyclopropylphenyl)-1H-imidazol-2-yl]-2-methylpiperidin-1-yl]-3-[(3-methyl-1,2-thiazol-5-yl)amino]pyrazine-2-carboxamide]
100 to 1000 | 100 to 1000 | 10 to 100 | 100 to 1000 | ≤ 10 | CN1CCN(C(=O)c2ccc(Nc3nc(N4CCC[C@@H](n5ccc6cc(C7CC7)ccc6c5=O)C4)cnc3C(N)=O)cc2)CC1 [Example D-169, 5-[(3R)-3-(6-cyclopropyl-1-oxo-1,2-dihydroisoquinolin-2-yl)piperidin-1-yl]-3-{[4-(4-methylpiperazine-1-carbonyl)phenyl]amino}pyrazine-2-carboxamide]
1000 to 10000 | 100 to 1000 | ≤ 10 | 100 to 1000 | ≤ 10 | C[C@@H]1[C@H](NC(=O)c2ccc(C(C)(O)C(F)(F)F)cc2)CCCN1c1cnc(C(N)=O)c(Nc2cnn(C)c2)n1 (single isomer, unassigned) [Example D-213]
1000 to 10000 | 100 to 1000 | ≤ 10 | 100 to 1000 | ≤ 10 | CCN(CC)c1ccc(C(=O)N[C@@H]2CCCN(c3cnc(C(N)=O)c(Nc4cnn(C)c4)n3)[C@@H]2C)cc1 [Example D-218, 5-[(2R,3R)-3-[4-(diethylamino)benzamido]-2-methylpiperidin-1-yl]-3-[(1-methyl-1H-pyrazol-4-yl)amino]pyrazine-2-carboxamide]
1000 to 10000 | > 10000 | 1000 to 10000 | > 10000 | 100 to 1000 | Cn1cc(Nc2nc(N3C[C@@H](NC(=O)c4ccc(C5CC5)cc4)CC(F)(F)C3)cnc2C(N)=O)cn1 [Example D-189, 5-[(5S)-5-(4-cyclopropylbenzamido)-3,3-difluoropiperidin-1-yl]-3-[(1-methyl-1H-pyrazol-4-yl)amino]pyrazine-2-carboxamide]
100 to 1000 | 100 to 1000 | ≤ 10 | 100 to 1000 | ≤ 10 | C[C@@H]1[C@H](NC(=O)c2ccc(C3(O)CC3)cc2)CCCN1c1cnc(C(N)=O)c(Nc2cnn(C)c2)n1 [Example D-235, 5-[(2R,3R)-3-[4-(1-hydroxycyclopropyl)benzamido]-2-methylpiperidin-1-yl]-3-[(1-methyl-1H-pyrazol-4-yl)amino]pyrazine-2-carboxamide]
